In patent US5488055A, “Substituted N-cycloalkylmethyl-1H-pyrazolo(3,4-b)quinolin-4 amines and compositions and methods of use thereof” (Sanofi Winthrop Inc., priority 1995, dated 1996):
Structures can show the parent of a compound that is named as a salt.

tested on: cGMP-PDE V; experiment: c-GMP-PDE V inhibitory activity; format: biochemical, various animal species and man; details: not given
Method: The cGMP-PDE and other PDE isozymes were isolated from cardiovascular tissues (heart and aorta) of various animal species and man by anion-exchange and affinity chromatography as described by Silver et al., Sec. Messeng. Phos. 13:13-25, 1991; PDE activity, in the presence and absence of test compounds was determined essentially as described by Thompson et al., Adv. Cyclic Nucleotide Res. 10:69-92. To determine the potency and selectivity of compounds as PDE inhibitors, compounds are screened for their effect on cyclic nucleotide hydrolysis at 10 μM. […] The IC50 values are calculated from concentration-response curves as described by Tallarida and Murray, Manual of Pharmacologic Calculations with Computer Programs, Procedure 8, Graded Dose-response, pp. 14-19, Springer-Verlag, New York, 1981.

Structure (SMILES)	IC50 [nM]
CCn1ncc2c(NC[C@@H]3CCC[C@H](O)C3)c3cc([N+](=O)[O-])ccc3nc21 (relative stereo) [Example 36(a), 1-ethyl-6-nitro-N-(3-hydroxycyclohexylmethyl)-1 H-pyrazolo[3,4-b]quinolin-4-amine]	10.1
CCn1ncc2c(NC[C@@H]3CCC[C@@H](O)C3)c3cc([N+](=O)[O-])ccc3nc21 (relative stereo) [Example 36(b), 1-ethyl-6-nitro-N-(3-hydroxycyclohexylmethyl)-1H-pyrazolo[3,4-b]quinolin-4-amine]	19.3
CCn1ncc2c(N[C@@H](C)C3CCCCC3)c3cc([S+](C)[O-])ccc3nc21 (single isomer, unassigned) [48(e), 1-ethyl-6-(methylsulfinyl)-N-[S(+)-1-(cyclohexyl)ethyl]-1H-pyrazolo[3,4-b]quinolin-4-amine]	7.6
CCn1ncc2c(N[C@@H](C)C3CCCCC3)c3cc([S+](C)[O-])ccc3nc21 (single isomer, unassigned) [Example 48(d), 1-ethyl-6-(methylsulfinyl)-N-[S(+)-1-(cyclohexyl)ethyl]-1H-pyrazolo[3,4-b]quinolin-4-amine]	4.2
CCn1ncc2c(N[C@@H](CO)C3CCCCC3)c3cc([N+](=O)[O-])ccc3nc21 [40(c), 1-ethyl-6-nitro-N-[R-(-)-1-(cyclohexyl)ethanol]-1H-pyrazolo[3,4-b]quinolin-4-amine]	2.4
CCn1ncc2c(N[C@@H](C)C3CCCCC3)c3cc(C#N)ccc3nc21 [41(c), 1-ethyl-6-cyano-N-[S(+)-(1-cyclohexyl)ethyl]-1H-pyrazolo[3,4-b]quinolin-4-amine]	0.96
CCn1ncc2c(N[C@@H](C)C3CCCCC3)c3cc(OC)c(OC)cc3nc21 [42(c)]	112

Second part, the molecule after the results:

IC50 [nM]	Structure (SMILES)
82	CCn1nc(C)c2c(NCC3CCCCC3)c3ccccc3nc21 [2(c), 1-ethyl-3-methyl-N-(cyclohexylmethyl)-1H-pyrazolo[3,4-b]quinolin-4-amine hydrochloride]
610	CCn1ncc2c(NCC3CCCCC3)c3cccc(OC)c3nc21 [9(f), 1-ethyl-8-methoxy-N-(cyclohexylmethyl)-1H-pyrazolo[3,4-b]quinolin-4-amine]
260	c1ccc(Cn2ncc3c(NCC4CCCCC4)c4ccccc4nc32)cc1 [10(d), 1-phenylmethyl-N-(cyclohexylmethyl)-1H-pyrazolo[3,4-b]quinolin-4-amine]
150	c1ccc2c(NCC3CCCCC3)c3cnn(C4CCCC4)c3nc2c1 [11(e), 1-cyclopentyl-N-(cyclohexylmethyl)-1H-pyrazolo[3,4-b]quinolin-4-amine]
150	CCn1ncc2c(NCC3CCCCC3)c3ccc([N+](=O)[O-])cc3nc21 [16(c), 1-ethyl-7-nitro-N-(cyclohexylmethyl)-1H-pyrazolo[3,4-b]quinolin-4-amine]
147	CCn1ncc2c(NCC3CCCCC3)c3ccc(OC)cc3nc21 [18(d), 1-ethyl-7-methoxy-N-(cyclohexylmethyl)-1H-pyrazolo[3,4-b]quinolin-4-amine]
51	CCn1ncc2c(NCC3CCCCC3)c3cc(NC(C)=O)ccc3nc21 [24(c), 1-ethyl-6-acetamido-N-(cyclohexylmethyl)-1H-pyrazolo[3,4-b]quinolin-4-amine]
15	CCn1ncc2c(NCC3CCCCC3)c3cc(C(=O)OC)ccc3nc21 [29(d), 1-ethyl-6-methoxycarbonyl-N-(cyclohexylmethyl)-1H-pyrazolo[3,4-b]quinolin-4-amine]

same assay, conditions: 0.1 μM

Structure (SMILES)	Percent Inhibition cGMP-PDE V [%]
CCn1ncc2c(NCC3CCC(O)CC3)c3cc(OC)ccc3nc21 (stereo not shown) [19(d), 1-ethyl-6-methoxy-N-(4-hydroxycyclohexylmethyl)-1H-pyrazolo[3,4-b]quinolin-4-amine]	28
CCn1ncc2c(NCC3CCC(=O)CC3)c3cc(OC)ccc3nc21 [28(b), 1-ethyl-6-methoxy-N-[4-oxocyclohexylmethyl]-1H-pyrazolo[3,4-b]quinolin-4-amine]	0

same assay, conditions: 1 μM

Structure (SMILES)	Percent Inhibition cGMP-PDE V [%]
CCn1ncc2c(NCC3CCC(=O)CC3)c3cc(OC)ccc3nc21 [28(b), 1-ethyl-6-methoxy-N-[4-oxocyclohexylmethyl]-1H-pyrazolo[3,4-b]quinolin-4-amine]	25

same assay, conditions: 10 μM

Structure (SMILES)	Percent Inhibition cGMP-PDE V [%]
CCn1ncc2c(NCC3CCC(=O)CC3)c3cc(OC)ccc3nc21 [28(b), 1-ethyl-6-methoxy-N-[4-oxocyclohexylmethyl]-1H-pyrazolo[3,4-b]quinolin-4-amine]	79
